Source: patent US20250152781A1, “TISSUE ENGINEERING AND DRUG DELIVERY DEVICE” (Ohio State Innovation Foundation, priority 2022, published 2025)

Assay: Diffusive release of Rose Bengal through sintered electrospun polymer capsule wall in PBS
Assay type: physicochemical
Text: To create a generic advantage that dramatically enhances the long-term drug delivery properties of electrospun scaffolds beyond those currently available via electrospinning alone. A little-known aspect of materials processing is that the shrinkage of high surface area polymers (e.g., in electrospun or electrosprayed form) can be used to provide higher density polymers. In the context of electrospun tissue engineering scaffolds, this phenomenon can be used to create relatively dense material from polymer compositions that would be difficult—if not impossible—to create via extrusion. The relatively dense material then creates a solid barrier through which diffusion of the internally-held drug can occur. The simplest version of this process involves creating a hollow tube via electrospinning (FIG. 1), sintering it to full or nearly-full density (thus eliminating open porosity, see FIG. 2), and then inserting the drug of interest contained with the appropriate solvent. Once this is complete, the ends of the tube can be heat-sealed (FIG. 3) using commonly available, purpose-built equipment designed and manufactured for the purpose of heat-sealing plastics of nearly any chemical composition. […]

O=C([O-])c1c(Cl)c(Cl)c(Cl)c(Cl)c1-c1c2cc(I)c(=O)c(I)c-2oc2c(I)c([O-])c(I)cc12.[Na+].[Na+] [Rose Bengal]
drug release rate of Rose Bengal through 95% PCL-5% PET wall (95% PCL-5% polyethylene terephthalate wall formed by electrospinning then sintering to full density, after 30+ days of release (FIG. 5)): above 10 μg/day
release rate of Rose Bengal through PCL capsule wall (PCL wall formed by electrospinning then sintering to full density, after 120 days of exposure to 37° C. phosphate-buffered saline (FIG. 4)): 9 to 10 µg/day
